# Laboratory results reported in the supplement of paper PMC8882468.
# ± gives the standard deviation of the averaged measurements.
# System: HCI-011.E2 (organoid from an ER-positive breast cancer xenograft)
# Experiment: CTG-3D luminescence at 96 h relative to day-0 seeding control (ratio to day 0); higher = more growth / less cytotoxicity; PDxO 3D drug screen, 96 h, CTG-3D normalised to day-0 seeding control.
# Conditions: 0.005 µM
row,SMILES,CTG-3D luminescence at 96 h
1,COc1cccc2c1C(=O)c1c(O)c3c(c(O)c1C2=O)C[C@@](O)(C(=O)CO)C[C@@H]3O[C@H]1C[C@H](N)[C@H](O)[C@H](C)O1 [doxorubicin],1.4 ± 0.2
2,O=C(O)C1(C(=O)O)CCC1.[NH2-].[NH2-].[Pt+2] [carboplatin],1.54 ± 0.35
3,NC(=O)Nc1cc(-c2cccc(F)c2)sc1C(=O)N[C@H]1CCCNC1 [AZD7762],1.56 ± 0.56
4,Nc1ccn([C@@H]2O[C@H](CO)[C@@H](O)C2(F)F)c(=O)n1 [gemcitabine],1.43 ± 0.32
5,CC1(C)CCC(c2ccc(Cl)cc2)=C(CN2CCN(c3ccc(C(=O)NS(=O)(=O)c4ccc(N[C@H](CCN5CCOCC5)CSc5ccccc5)c(S(=O)(=O)C(F)(F)F)c4)cc3)CC2)C1 [navitoclax],1.33 ± 0.73
6,CN(Cc1cnc2nc(N)nc(N)c2n1)c1ccc(C(=O)N[C@@H](CCC(=O)O)C(=O)O)cc1 [methotrexate],1.44 ± 0.56
7,C=CCn1c(=O)c2cnc(Nc3ccc(N4CCN(C)CC4)cc3)nc2n1-c1cccc(C(C)(C)O)n1 [adavosertib],1.49 ± 0.12
8,CC(C)(C(=O)NCC(F)(F)C(F)(F)F)C(=O)N[C@@H]1C(=O)Nc2ccccc2-c2ccccc21,1.49 ± 0.27
9,C[C@@H]1COCCN1c1cc(C2([S@](C)(=N)=O)CC2)nc(-c2cc[nH]c3nccc2-3)n1 [ceralasertib],1.56 ± 0.42
10,CCN1CCN(Cc2ccc(Nc3ncc(F)c(-c4cc(F)c5nc(C)n(C(C)C)c5c4)n3)nc2)CC1 [abemaciclib],1.57 ± 0.25

# Same assay, conditions: 0.005 µM; days in culture: 74
row,SMILES,CTG-3D luminescence at 96 h
1,COc1cccc2c1C(=O)c1c(O)c3c(c(O)c1C2=O)C[C@@](O)(C(=O)CO)C[C@@H]3O[C@H]1C[C@H](N)[C@H](O)[C@H](C)O1 [doxorubicin],2.17
2,O=C(O)C1(C(=O)O)CCC1.[NH2-].[NH2-].[Pt+2] [carboplatin],2.04
3,NC(=O)Nc1cc(-c2cccc(F)c2)sc1C(=O)N[C@H]1CCCNC1 [AZD7762],1.88
4,Nc1ccn([C@@H]2O[C@H](CO)[C@@H](O)C2(F)F)c(=O)n1 [gemcitabine],2.13
5,CC1(C)CCC(c2ccc(Cl)cc2)=C(CN2CCN(c3ccc(C(=O)NS(=O)(=O)c4ccc(N[C@H](CCN5CCOCC5)CSc5ccccc5)c(S(=O)(=O)C(F)(F)F)c4)cc3)CC2)C1 [navitoclax],2.16
6,CN(Cc1cnc2nc(N)nc(N)c2n1)c1ccc(C(=O)N[C@@H](CCC(=O)O)C(=O)O)cc1 [methotrexate],1.99
7,C=CCn1c(=O)c2cnc(Nc3ccc(N4CCN(C)CC4)cc3)nc2n1-c1cccc(C(C)(C)O)n1 [adavosertib],2.11
8,CC(C)(C(=O)NCC(F)(F)C(F)(F)F)C(=O)N[C@@H]1C(=O)Nc2ccccc2-c2ccccc21,1.89
9,C[C@@H]1COCCN1c1cc(C2([S@](C)(=N)=O)CC2)nc(-c2cc[nH]c3nccc2-3)n1 [ceralasertib],1.97
10,CCN1CCN(Cc2ccc(Nc3ncc(F)c(-c4cc(F)c5nc(C)n(C(C)C)c5c4)n3)nc2)CC1 [abemaciclib],2.59

# Same assay, conditions: 0.1 µM
row,SMILES,CTG-3D luminescence at 96 h
1,COc1cccc2c1C(=O)c1c(O)c3c(c(O)c1C2=O)C[C@@](O)(C(=O)CO)C[C@@H]3O[C@H]1C[C@H](N)[C@H](O)[C@H](C)O1 [doxorubicin],1.98 ± 0.67
2,O=C(O)C1(C(=O)O)CCC1.[NH2-].[NH2-].[Pt+2] [carboplatin],2.26 ± 0.84
3,NC(=O)Nc1cc(-c2cccc(F)c2)sc1C(=O)N[C@H]1CCCNC1 [AZD7762],1.77 ± 0.42
4,Nc1ccn([C@@H]2O[C@H](CO)[C@@H](O)C2(F)F)c(=O)n1 [gemcitabine],1.87 ± 0.49
5,CC1(C)CCC(c2ccc(Cl)cc2)=C(CN2CCN(c3ccc(C(=O)NS(=O)(=O)c4ccc(N[C@H](CCN5CCOCC5)CSc5ccccc5)c(S(=O)(=O)C(F)(F)F)c4)cc3)CC2)C1 [navitoclax],1.72 ± 0.72
6,CN(Cc1cnc2nc(N)nc(N)c2n1)c1ccc(C(=O)N[C@@H](CCC(=O)O)C(=O)O)cc1 [methotrexate],1.83 ± 0.1
7,C=CCn1c(=O)c2cnc(Nc3ccc(N4CCN(C)CC4)cc3)nc2n1-c1cccc(C(C)(C)O)n1 [adavosertib],1.89 ± 0.29
8,CC(C)(C(=O)NCC(F)(F)C(F)(F)F)C(=O)N[C@@H]1C(=O)Nc2ccccc2-c2ccccc21,1.97 ± 0.57
9,C[C@@H]1COCCN1c1cc(C2([S@](C)(=N)=O)CC2)nc(-c2cc[nH]c3nccc2-3)n1 [ceralasertib],1.78 ± 0.58
10,CCN1CCN(Cc2ccc(Nc3ncc(F)c(-c4cc(F)c5nc(C)n(C(C)C)c5c4)n3)nc2)CC1 [abemaciclib],1.9 ± 0.079

# Same assay, conditions: 0.1 µM; days in culture: 74
row,SMILES,CTG-3D luminescence at 96 h
1,COc1cccc2c1C(=O)c1c(O)c3c(c(O)c1C2=O)C[C@@](O)(C(=O)CO)C[C@@H]3O[C@H]1C[C@H](N)[C@H](O)[C@H](C)O1 [doxorubicin],2.07
2,O=C(O)C1(C(=O)O)CCC1.[NH2-].[NH2-].[Pt+2] [carboplatin],1.86
3,NC(=O)Nc1cc(-c2cccc(F)c2)sc1C(=O)N[C@H]1CCCNC1 [AZD7762],1.68
4,Nc1ccn([C@@H]2O[C@H](CO)[C@@H](O)C2(F)F)c(=O)n1 [gemcitabine],2.09
5,CC1(C)CCC(c2ccc(Cl)cc2)=C(CN2CCN(c3ccc(C(=O)NS(=O)(=O)c4ccc(N[C@H](CCN5CCOCC5)CSc5ccccc5)c(S(=O)(=O)C(F)(F)F)c4)cc3)CC2)C1 [navitoclax],2.38
6,CN(Cc1cnc2nc(N)nc(N)c2n1)c1ccc(C(=O)N[C@@H](CCC(=O)O)C(=O)O)cc1 [methotrexate],2.27
7,C=CCn1c(=O)c2cnc(Nc3ccc(N4CCN(C)CC4)cc3)nc2n1-c1cccc(C(C)(C)O)n1 [adavosertib],2.08
8,CC(C)(C(=O)NCC(F)(F)C(F)(F)F)C(=O)N[C@@H]1C(=O)Nc2ccccc2-c2ccccc21,1.8
9,C[C@@H]1COCCN1c1cc(C2([S@](C)(=N)=O)CC2)nc(-c2cc[nH]c3nccc2-3)n1 [ceralasertib],1.85
10,CCN1CCN(Cc2ccc(Nc3ncc(F)c(-c4cc(F)c5nc(C)n(C(C)C)c5c4)n3)nc2)CC1 [abemaciclib],2.7

# Same assay, conditions: 1 µM
row,SMILES,CTG-3D luminescence at 96 h
1,COc1cccc2c1C(=O)c1c(O)c3c(c(O)c1C2=O)C[C@@](O)(C(=O)CO)C[C@@H]3O[C@H]1C[C@H](N)[C@H](O)[C@H](C)O1 [doxorubicin],1.42 ± 0.53
2,O=C(O)C1(C(=O)O)CCC1.[NH2-].[NH2-].[Pt+2] [carboplatin],1.71 ± 0.94
3,NC(=O)Nc1cc(-c2cccc(F)c2)sc1C(=O)N[C@H]1CCCNC1 [AZD7762],1.66 ± 0.88
4,Nc1ccn([C@@H]2O[C@H](CO)[C@@H](O)C2(F)F)c(=O)n1 [gemcitabine],1.54 ± 0.68
5,CC1(C)CCC(c2ccc(Cl)cc2)=C(CN2CCN(c3ccc(C(=O)NS(=O)(=O)c4ccc(N[C@H](CCN5CCOCC5)CSc5ccccc5)c(S(=O)(=O)C(F)(F)F)c4)cc3)CC2)C1 [navitoclax],1.52 ± 0.53
6,CN(Cc1cnc2nc(N)nc(N)c2n1)c1ccc(C(=O)N[C@@H](CCC(=O)O)C(=O)O)cc1 [methotrexate],1.62 ± 0.63
7,C=CCn1c(=O)c2cnc(Nc3ccc(N4CCN(C)CC4)cc3)nc2n1-c1cccc(C(C)(C)O)n1 [adavosertib],1.41 ± 0.85
8,CC(C)(C(=O)NCC(F)(F)C(F)(F)F)C(=O)N[C@@H]1C(=O)Nc2ccccc2-c2ccccc21,1.71 ± 0.46
9,C[C@@H]1COCCN1c1cc(C2([S@](C)(=N)=O)CC2)nc(-c2cc[nH]c3nccc2-3)n1 [ceralasertib],1.42 ± 0.59
10,CCN1CCN(Cc2ccc(Nc3ncc(F)c(-c4cc(F)c5nc(C)n(C(C)C)c5c4)n3)nc2)CC1 [abemaciclib],1.52 ± 0.63

# Same assay, conditions: 1 µM; days in culture: 74
row,SMILES,CTG-3D luminescence at 96 h
1,COc1cccc2c1C(=O)c1c(O)c3c(c(O)c1C2=O)C[C@@](O)(C(=O)CO)C[C@@H]3O[C@H]1C[C@H](N)[C@H](O)[C@H](C)O1 [doxorubicin],1.65
2,O=C(O)C1(C(=O)O)CCC1.[NH2-].[NH2-].[Pt+2] [carboplatin],2.2
3,NC(=O)Nc1cc(-c2cccc(F)c2)sc1C(=O)N[C@H]1CCCNC1 [AZD7762],1.62
4,Nc1ccn([C@@H]2O[C@H](CO)[C@@H](O)C2(F)F)c(=O)n1 [gemcitabine],2.18
5,CC1(C)CCC(c2ccc(Cl)cc2)=C(CN2CCN(c3ccc(C(=O)NS(=O)(=O)c4ccc(N[C@H](CCN5CCOCC5)CSc5ccccc5)c(S(=O)(=O)C(F)(F)F)c4)cc3)CC2)C1 [navitoclax],2.09
6,CN(Cc1cnc2nc(N)nc(N)c2n1)c1ccc(C(=O)N[C@@H](CCC(=O)O)C(=O)O)cc1 [methotrexate],2.49
7,C=CCn1c(=O)c2cnc(Nc3ccc(N4CCN(C)CC4)cc3)nc2n1-c1cccc(C(C)(C)O)n1 [adavosertib],2.2
8,CC(C)(C(=O)NCC(F)(F)C(F)(F)F)C(=O)N[C@@H]1C(=O)Nc2ccccc2-c2ccccc21,1.57
9,C[C@@H]1COCCN1c1cc(C2([S@](C)(=N)=O)CC2)nc(-c2cc[nH]c3nccc2-3)n1 [ceralasertib],1.53
10,CCN1CCN(Cc2ccc(Nc3ncc(F)c(-c4cc(F)c5nc(C)n(C(C)C)c5c4)n3)nc2)CC1 [abemaciclib],2.61

# Same assay, conditions: 10 µM
row,SMILES,CTG-3D luminescence at 96 h
1,COc1cccc2c1C(=O)c1c(O)c3c(c(O)c1C2=O)C[C@@](O)(C(=O)CO)C[C@@H]3O[C@H]1C[C@H](N)[C@H](O)[C@H](C)O1 [doxorubicin],0.122 ± 0.056
2,O=C(O)C1(C(=O)O)CCC1.[NH2-].[NH2-].[Pt+2] [carboplatin],2.08 ± 0.84
3,NC(=O)Nc1cc(-c2cccc(F)c2)sc1C(=O)N[C@H]1CCCNC1 [AZD7762],1.32 ± 0.15
4,Nc1ccn([C@@H]2O[C@H](CO)[C@@H](O)C2(F)F)c(=O)n1 [gemcitabine],1.78 ± 0.39
5,CC1(C)CCC(c2ccc(Cl)cc2)=C(CN2CCN(c3ccc(C(=O)NS(=O)(=O)c4ccc(N[C@H](CCN5CCOCC5)CSc5ccccc5)c(S(=O)(=O)C(F)(F)F)c4)cc3)CC2)C1 [navitoclax],1.84 ± 0.31
6,CN(Cc1cnc2nc(N)nc(N)c2n1)c1ccc(C(=O)N[C@@H](CCC(=O)O)C(=O)O)cc1 [methotrexate],2.08 ± 0.72
7,C=CCn1c(=O)c2cnc(Nc3ccc(N4CCN(C)CC4)cc3)nc2n1-c1cccc(C(C)(C)O)n1 [adavosertib],1.73 ± 0.77
8,CC(C)(C(=O)NCC(F)(F)C(F)(F)F)C(=O)N[C@@H]1C(=O)Nc2ccccc2-c2ccccc21,2.01 ± 0.5
9,C[C@@H]1COCCN1c1cc(C2([S@](C)(=N)=O)CC2)nc(-c2cc[nH]c3nccc2-3)n1 [ceralasertib],1.02 ± 0.21
10,CCN1CCN(Cc2ccc(Nc3ncc(F)c(-c4cc(F)c5nc(C)n(C(C)C)c5c4)n3)nc2)CC1 [abemaciclib],1.04 ± 0.38

# Same assay, conditions: 10 µM; days in culture: 74
row,SMILES,CTG-3D luminescence at 96 h
1,COc1cccc2c1C(=O)c1c(O)c3c(c(O)c1C2=O)C[C@@](O)(C(=O)CO)C[C@@H]3O[C@H]1C[C@H](N)[C@H](O)[C@H](C)O1 [doxorubicin],0.129
2,O=C(O)C1(C(=O)O)CCC1.[NH2-].[NH2-].[Pt+2] [carboplatin],2.77
3,NC(=O)Nc1cc(-c2cccc(F)c2)sc1C(=O)N[C@H]1CCCNC1 [AZD7762],1.33
4,Nc1ccn([C@@H]2O[C@H](CO)[C@@H](O)C2(F)F)c(=O)n1 [gemcitabine],2.75
5,CC1(C)CCC(c2ccc(Cl)cc2)=C(CN2CCN(c3ccc(C(=O)NS(=O)(=O)c4ccc(N[C@H](CCN5CCOCC5)CSc5ccccc5)c(S(=O)(=O)C(F)(F)F)c4)cc3)CC2)C1 [navitoclax],2.86
